Where two headings read alike, the source gives them in different places.
Experiments:
caspase-7 = caspase-7 (Homo sapiens (Human), UniProt P55210); assay: Caspase-7 Inhibitor Drug Screening Kit, fluorometric enzymatic assay; conditions: based on the IC50 values
Procedure: (§1) The level of inhibition of caspase-1, -3, -5, -7, -9 activity was determined by comparison of the relative fluorescence intensity in samples with or without the compound.

Caspase 3/7 (Glo3/7) = assay: Glo3/7 assay
caspase-5 = caspase-5 (Homo sapiens (Human), UniProt P51878); assay: Caspase-5 Inhibitor Drug Screening Kit, fluorometric enzymatic assay; conditions: for IC50: read-out: Caspase enzymatic activity, IC50 (uM) Caspase 5, 30-minute incubation at 37° C., AFC liberation
caspase-5, sequence (P51878 137-327): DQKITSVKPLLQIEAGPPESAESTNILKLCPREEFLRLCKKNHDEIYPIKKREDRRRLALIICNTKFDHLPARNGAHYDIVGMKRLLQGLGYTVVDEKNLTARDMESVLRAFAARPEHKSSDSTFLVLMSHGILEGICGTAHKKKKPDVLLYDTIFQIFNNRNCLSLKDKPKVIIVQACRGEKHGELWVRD
caspase-5, sequence (P51878 347-434): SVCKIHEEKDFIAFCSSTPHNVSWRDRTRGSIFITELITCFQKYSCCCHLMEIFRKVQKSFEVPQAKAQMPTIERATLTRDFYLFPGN
Procedure: as §1

Hela cells = assay: Inhibition of proteolytic cleavage of PARP in staurosporine-treated live Hela cells; assay type: cell-based; conditions: for inhibition at 50 µM: Homo sapiens
Procedure: To test the efficacy of caspase-3 inhibitors at the cellular level, the ability of selected compounds to inhibit the proteolytic cleavage of PARP (poly ADP-ribose polymerase) was evaluated in live Hela cells.
Briefly, in this assay Hela cells are seeded in 96 well plates and incubated for 4 hours with staurosporine, a well characterized inducer of apoptosis, alone or together with different concentrations of compound (50, 25, 10 and 3 uM). After formaldehyde-based fixation, the cells are stained with a fluorescein-labeled anti-cleaved PARP antibody (Cell signaling, Cat#: 9547) and counterstained with Hoechst33342 (Invitrogen, Cat#: H3570) to mark all nuclei. Fluorescence images are taken on a Cellomics™ microscope system (Thermo Scientific, Pittsburgh, USA) with the Hoechst stain in the blue channel and the cleaved PARP antibody stain in the green channel. The percentage of cleaved PARP positive cells is determined by calculating the ratio between nuclei with a cleaved PARP antibody staining above a certain threshold and all (Hoechst positive) nuclei. The efficacy of caspase-3 inhibition is determined by calculating the ratio between cleaved PARP positive cells after staurosporine incubation together with compounds and staurosporine incubation without compounds.

caspase-9 = caspase-9 (Homo sapiens (Human), UniProt P55211); assay: Caspase-9 Inhibitor Drug Screening Kit, fluorometric enzymatic assay; conditions: for IC50: read-out: Caspase enzymatic activity, IC50 (uM) Caspase 9, 30-minute incubation at 37° C., AFC liberation
caspase-9, sequence (P55211 1-315): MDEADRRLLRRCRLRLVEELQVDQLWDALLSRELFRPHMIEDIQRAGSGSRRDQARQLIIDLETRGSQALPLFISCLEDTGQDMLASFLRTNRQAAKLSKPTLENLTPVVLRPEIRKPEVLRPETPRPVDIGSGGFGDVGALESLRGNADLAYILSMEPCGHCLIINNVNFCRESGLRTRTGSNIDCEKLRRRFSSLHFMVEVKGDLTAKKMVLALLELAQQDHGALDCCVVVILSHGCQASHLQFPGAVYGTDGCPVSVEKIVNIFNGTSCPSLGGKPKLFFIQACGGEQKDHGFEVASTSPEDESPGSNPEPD
caspase-9, sequence (P55211 331-416): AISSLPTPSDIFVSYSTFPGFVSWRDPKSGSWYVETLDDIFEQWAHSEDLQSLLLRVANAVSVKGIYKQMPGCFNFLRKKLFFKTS
Procedure: as §1

caspase-1 = caspase-1 (Homo sapiens (Human), UniProt P29466); assay: Caspase-1 Inhibitor Drug Screening Kit, fluorometric enzymatic assay
caspase-1, sequence (P29466 120-297): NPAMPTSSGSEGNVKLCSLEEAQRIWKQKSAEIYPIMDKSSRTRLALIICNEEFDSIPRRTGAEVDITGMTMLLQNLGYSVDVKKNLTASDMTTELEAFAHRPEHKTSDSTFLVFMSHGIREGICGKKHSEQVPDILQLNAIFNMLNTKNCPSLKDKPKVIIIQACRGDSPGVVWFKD
caspase-1, sequence (P29466 317-404): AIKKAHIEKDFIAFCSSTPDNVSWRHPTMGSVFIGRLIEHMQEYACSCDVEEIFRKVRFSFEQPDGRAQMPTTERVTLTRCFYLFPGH
Procedure: as §1

[1] = 50 uM, relative to DEVDFMK, read-out: % of inhibition with compound relative to DEVDFMK
[2] = read-out: % inhibition of PARP cleavage at 50 uM compound, staurosporine 4 hours, 50 uM compound

caspase-7, sequence (P55210 24-198): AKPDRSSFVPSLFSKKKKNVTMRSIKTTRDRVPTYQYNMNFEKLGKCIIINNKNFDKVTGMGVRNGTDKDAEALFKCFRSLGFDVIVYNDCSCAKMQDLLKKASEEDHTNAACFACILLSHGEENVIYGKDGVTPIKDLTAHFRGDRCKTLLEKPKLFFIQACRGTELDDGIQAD
caspase-7, sequence (P55210 207-303): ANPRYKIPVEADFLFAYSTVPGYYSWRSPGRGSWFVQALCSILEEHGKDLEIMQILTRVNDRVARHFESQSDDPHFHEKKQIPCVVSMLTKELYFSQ

selectivity of caspase-3 over caspase-7 (IC50 fold difference) (caspase-7) | IC50 (Caspase 3/7 (Glo3/7)) [µM] | IC50 (caspase-5) [µM] | IC50 (caspase-9) [µM] | IC50 (caspase-1; read-out: Caspase enzymatic activity, IC50 (uM) Caspase 1, 30-minute incubation at 37° C., AFC liberation) [µM] | inhibitory activity for caspase-1 (in words) (caspase-1; tested dose-range 1-3333 nM) | inhibitory activity for caspase-5 (in words) (caspase-5; tested dose-range 1-3333 nM) | inhibitory activity for caspase-9 (in words) (caspase-9; tested dose-range 1-3333 nM) | fold less efficiency against caspase-1 than against group III caspases (caspase-1) | Structure (SMILES) | reduction of the percentage of PARP positive cells after staurosporine treatment (Hela cells) | inhibition at 50 µM (Hela cells; [1]) [%] | inhibition at 50 µM (Hela cells; [2]) [%] | effectivity in inhibiting PARP cleavage (in words) (Hela cells; relative to DEVD-fmk)
about 12 fold | 0.1 | > 10 | > 10 |  |  |  |  |  | CC(C)[C@H](NC(=O)[C@@H](NC(=O)[C@H](CC(=O)O)NC(=O)OCc1ccccc1)c1ccccc1)C(=O)N[C@H](/C=C/S(C)(=O)=O)CC(=O)O [Compound 53, Z-Asp-Phg-Val-Aspmethyl vinyl sulfone] | more than 50% | 80 | 55 | highly effective relative to DEVD-fmk
~50 fold | 0.9 | > 3.33 | > 3.33 | > 3.33 | No significant inhibitory activity | No significant inhibitory activity | No significant inhibitory activity |  | CC(C)[C@H](NC(=O)[C@H](Cc1ccc2ccccc2n1)NC(=O)[C@H](CC(=O)O)NC(=O)OCc1ccccc1)C(=O)N[C@H](/C=C/S(=O)(=O)c1ccccc1)CC(=O)O [Compound 63, Z-Asp-Ala(2′-quinolyl)-Val-Aspphenyl vinyl sulfone] |  | 15 | 10 | 
 | 0.1 | > 3.33 | > 3.33 |  |  |  |  | about 29 fold | CC(C)[C@H](NC(=O)[C@@H](NC(=O)[C@H](CC(=O)O)NC(=O)OCc1ccccc1)C1Cc2ccccc2C1)C(=O)N[C@H](/C=C/S(C)(=O)=O)CC(=O)O [Compound 57, Z-Asp-Indanylglycine-Val-Aspmethyl vinyl sulfone] |  | 70 | 65 | 
